Reference: US20250025443A1, “COMPOUNDS AND METHODS FOR TREATING CORONA VIRUSES” (CLEAR CREEK BIO, INC., priority 2021, published 2025)

Target: SARS-CoV-2 Papain-Like Protease (PLpro) (Severe acute respiratory syndrome coronavirus 2 (2019-nCoV) (SARS-CoV-2), UniProt P0DTD1)
Experiment: biochemical
Conditions: PLpro enzymatic fluorescence assay; class symbols; read-out: PLpro IC50

| Structure (SMILES) | IC50 |
| --- | --- |
| Cc1ccc(OC[C@@H]2CCN2)cc1C(=O)NC1(c2cc(-c3ccn(-c4ccccc4)n3)cc3ncccc23)CC1 [Compound 664, (S)-5-(Azetidin-2-ylmethoxy)-2-methyl-N-(1-(7-(1-phenyl-1H-pyrazol-3-yl)quinolin-5-yl)cyclopropyl)benzamide] | < 100 nM |
| COc1cc(C2(NC(=O)c3cc(OC[C@@H]4CCN4C)ccc3C)CC2)c2ncccc2c1 [Compound 761, (S)-N-(1-(6-Methoxyquinolin-8-yl)cyclopropyl)-2-methyl-5-((1-methylazetidin-2-yl)methoxy)benzamide] | 100 to 1000 nM |
| Cc1ccc(OC[C@@H]2CCN2)cc1C(=O)NC1(c2cc(-c3ccc4ncnn4c3)cc3ncccc23)CC1 [Compound 685, (S)-N-(1-(7-([1,2,4]Triazolo[1,5-a]pyridin-6-yl)quinolin-5-yl)cyclopropyl)-5-(azetidin-2-ylmethoxy)-2-methylbenzamide] | < 100 nM |
| [2H]C([2H])([2H])N1CC[C@H]1COc1ccc(C)c(C(=O)NC2(c3cc(C=C)cc4ncccc34)CC2)c1 [Compound 788, (S)-2-Methyl-5-((1-(methyl-d3)azetidin-2-yl)methoxy)-N-(1-(7-vinylquinolin-5-yl)cyclopropyl)benzamide] | < 100 nM |
| C=C(C)c1cc(C2(NC(=O)c3cc(OC[C@H](C)NC)ccc3C)CC2)c2cccnc2c1 [Compound 660, (S)-2-Methyl-5-(2-(methylamino)propoxy)-N-(1-(7-(prop-1-en-2-yl)quinolin-5-yl)cyclopropyl)benzamide] | < 100 nM |
| Cc1ccc(OC[C@@H]2CCN2C)cc1C(=O)NC1(c2cc(C#CC(F)(F)F)cc3ncccc23)CC1 [Compound 803, (S)-2-Methyl-5-((1-methylazetidin-2-yl)methoxy)-N-(1-(7-(3,3,3-trifluoroprop-1-yn-1-yl)quinolin-5-yl)cyclopropyl)benzamide] | < 100 nM |
| CC(=O)c1ccc(-c2cc(C3(NC(=O)c4cc(OC[C@@H]5CCN5C)ccc4C)COC3)c3cccnc3c2)s1 [Compound 821, (S)-N-(3-(7-(5-Acetylthiophen-2-yl)quinolin-5-yl)oxetan-3-yl)-2-methyl-5-((1-methylazetidin-2-yl)methoxy)benzamide] | < 100 nM |
| Cc1ccc(OC[C@@H]2CCN2C)cc1C(=O)NC1(c2cc(-c3ccc(Cl)s3)cc3ncccc23)CC1 [Compound 623, (S)-N-(1-(7-(5-Chlorothiophen-2-yl)quinolin-5-yl)cyclopropyl)-2-methyl-5-((1-methylazetidin-2-yl)methoxy)benzamide] | < 100 nM |
| COc1cc(C2(NC(=O)c3cc(OC[C@H]4CC5(CC5)CN4C)ccc3C)CC2)c2cccnc2c1 [Compound 774, (R)—N-(1-(7-Methoxyquinolin-5-yl)cyclopropyl)-2-methyl-5-((5-methyl-5-azaspiro[2.4]heptan-6-yl)methoxy)benzamide] | < 100 nM |

Same assay, conditions: SARS-CoV-2 PLpro enzymatic fluorescence assay; read-out: PLpro IC50

| Structure (SMILES) | IC50 |
| --- | --- |
| Cc1ccc(N)cc1S(=O)(=O)N[C@H](C)c1cccc2ccccc12 [Compound 138, (R)-5-Amino-2-methyl-N-(1-(naphthalen-1-yl)ethyl)benzenesulfonamide] | > 5000 nM |
| Cc1ccc(OCC2CCN2C)cc1C(=O)N[C@@H](c1cccc2ccccc12)C(F)(F)F (stereo partly drawn) [Compound 386, 2-Methyl-5-((1-methylazetidin-2-yl)methoxy)-N-((S)-2,2,2-trifluoro-1-(naphthalen-1-yl)ethyl)benzamide] | < 100 nM |
| CNCCOc1ccc(C)c(C(=O)NC2(c3cccc4cnccc34)CC2)c1 [Compound 375, N-(1-(Isoquinolin-5-yl)cyclopropyl)-2-methyl-5-(2-(methylamino)ethoxy)benzamide] | < 100 nM |
| Cc1ccc(CCCN)cc1C(=O)NC1(c2cccc3ccccc23)CC1 [Compound 472, 5-(3-Aminopropyl)-2-methyl-N-(1-(naphthalen-1-yl)cyclopropyl)benzamide] | < 100 nM |
| Cc1ccc(OCCN(C)C)cc1C(=O)NC1(c2cc(O)cc3ccccc23)CC1 [Compound 345, 5-(2-(Dimethylamino)ethoxy)-N-(1-(3-hydroxynaphthalen-1-yl)cyclopropyl)-2-methylbenzamide] | < 100 nM |
| C#CC(NC(=O)c1cc(OCC2CCN2C)ccc1C)c1cccc2ccccc12 (stereo not drawn) [Compound 448, 2-Methyl-5-((1-methylazetidin-2-yl)methoxy)-N-(1-(naphthalen-1-yl)prop-2-yn-1-yl)benzamide] | 1000 to 5000 nM |
| C=C(C)c1cc(C2(NC(=O)c3cc(OC[C@@H]4CCN4C)ccc3C)CC2)c2cccnc2c1 [Compound 568, (S)-2-Methyl-5-((1-methylazetidin-2-yl)methoxy)-N-(1-(7-(prop-1-en-2-yl)quinolin-5-yl)cyclopropyl)benzamide] | < 100 nM |
| CNCc1cc2cc(C)c(C(=O)NC3(c4cccc5ccccc45)CC3)cc2o1 [Compound 220, 5-Methyl-2-((methylamino)methyl)-N-(1-(naphthalen-1-yl)cyclopropyl)benzofuran-6-carboxamide] | < 100 nM |
| Cc1cc2cc(C(=O)O)[nH]c2cc1C(=O)NC1(c2cccc3ccccc23)CC1 [Compound 204, 5-Methyl-6-((1-(naphthalen-1-yl)cyclopropyl)carbamoyl)-1H-indole-2-carboxylic acid] | 100 to 1000 nM |
| Cc1ccc(OCCN(C)C)cc1C(=O)NC1(c2ccccc2Oc2ccccc2)CC1 [Compound 298, 5-(2-(Dimethylamino)ethoxy)-2-methyl-N-(1-(2-phenoxyphenyl)cyclopropyl)benzamide] | 1000 to 5000 nM |
| Cc1ccc(OCCN(C)C)cc1C(=O)NC1(c2ccc(F)cc2)CC1 [Compound 259, 5-(2-(Dimethylamino)ethoxy)-N-(1-(4-fluorophenyl)cyclopropyl)-2-methylbenzamide] | > 5000 nM |
| Cc1ccc(OCC2CCN2C)cc1C(=O)NC1(c2cccc3ccc(O)cc23)CC1 (stereo not drawn) [Compound 477, N-(1-(7-Hydroxynaphthalen-1-yl)cyclopropyl)-2-methyl-5-((1-methylazetidin-2-yl)methoxy)benzamide] | < 100 nM |
| COc1ncccc1Nc1ccc(C)c(C(=O)N[C@H](C)c2cccc3ccccc23)c1 [Compound 115, (R)-5-((2-Methoxypyridin-3-yl)amino)-2-methyl-N-(1-(naphthalen-1-yl)ethyl)benzamide] | 1000 to 5000 nM |
| Cc1ccc(OCCN(C)C)cc1C(=O)NC1(c2cn(-c3ccccc3)c3ccccc23)CC1 [Compound 395, 5-(2-(Dimethylamino)ethoxy)-2-methyl-N-(1-(1-phenyl-1H-indol-3-yl)cyclopropyl)benzamide] | < 100 nM |
| Cc1ccc(OCC2COCCN2)cc1C(=O)NC1(c2cccc3ccccc23)CC1 (stereo not drawn) [Compound 286, 2-Methyl-5-(morpholin-3-ylmethoxy)-N-(1-(naphthalen-1-yl)cyclopropyl)benzamide] | < 100 nM |
| Cc1cc2cn[nH]c2cc1C(=O)N[C@H](C)c1cccc2ccccc12 [Compound 142, (R)-5-Methyl-N-(1-(naphthalen-1-yl)ethyl)-1H-indazole-6-carboxamide] | 100 to 1000 nM |
| Cc1ccc(OCC(N)=O)cc1C(=O)NC1(c2cccc3ccccc23)CC1 [Compound 285, 5-(2-Amino-2-oxoethoxy)-2-methyl-N-(1-(naphthalen-1-yl)cyclopropyl)benzamide] | 100 to 1000 nM |
| Cc1ccc(OCCN(C)C)cc1C(=O)NC1(c2cccc(Br)c2C)CC1 [Compound 336, N-(1-(3-Bromo-2-methylphenyl)cyclopropyl)-5-(2-(dimethylamino)ethoxy)-2-methylbenzamide] | 100 to 1000 nM |
